# Data reported in patent US20210403864A1, “METHODS AND COMPOSITIONS FOR TREATING ACTIVATED G-ALPHA Q MUTANT CANCERS OR MELANOCYTIC MALIGNANCIES” (Memorial Sloan Kettering Cancer Center, priority 2018, published 2021).
# How the values were obtained:
# [1] = tested on: CYSLTR2^L129Q; assay: IP1 accumulation assay in transiently transfected HEK293T cells; type: cell-based, human; details: 24-hour treatment
# Description: Cells were treated with YM at increasing doses for 24 hours. Error bars, s.e.m. from three biological replicates, each with three technical replicates.
# Exogenous Gene Expression. HEK293T cells were transiently transfected to express vectors containing synthetic CYSLTR2 (Moore A R, et al., Nat Genet. 48(6):675 (2016)) and GNAQ. Genewiz was used to codon optimize these sequences for expression in mammalian cells. The human GNAQ α-subunit plasmids encoding for GNAQ mutants Q209L, R183Q and G48V were generated by Quick Change (Agilent Technologies, Santa Clara, Calif.) site-directed mutagenesis. […]
# (§1) IP1 Accumulation Assay. IP1 concentrations in GNAQ-transfected HEK293T cells, GNAQ-expressing melan-a cells and uveal melanoma cells was measured using a competitive homogenous time resolved fluorescence (HTRF) assay (CisBio, Bedford, Mass.). […] Following incubation, cells were lysed by adding 3 μL/well of d2-labeled IP1 analogue as the fluorescence acceptor and the Terbium cryptate-labeled anti-IP1 mAb as the fluorescence donor, diluted in the kit-supplied lysis buffer. The plates were incubated overnight at RT and time-resolved fluorescence signals were read using the BioTek Synergy NEO plate reader (BioTek Instruments, Winooski, Vt.) at 620 nm and 655 nm. […] Dose-response curves and bar graphs were analyzed using GraphPad Prism 7.0 software. […]
# [2] = tested on: human UVM cell lines that harbored the GNAQ^Q209L/P mutation; assay: IP1 accumulation assay in UVM cells; type: cell-based; details: YM treatment at 24 hours
# Description: Cells were treated with increasing concentrations of YM for 3 hours (top) and 24 hours (bottom). Error bars, s.e.m from three biological replicates, each with three technical replicates.
# as §1, with “Mass.). Briefly, 9,000 transiently transfected-HEK293T cells, 5,000 melan-a cells and 5,000 uveal melanoma cells were seeded in low-volume 384-well plates in 7 μL media for 24 hours prior YM-254890 treatment.” for “Mass.).”, “nm. Results were calculated as a 665 nm/620 nm signal ratio, and IP1 concentrations were interpolated from a standard curve prepared using the supplied IP1 calibrator.” for “nm.”
# [3] = tested on: human Mel202 uveal melanoma xenografts; assay: In vivo anti-tumor activity, xenografts in SCID mice; details: MEK162 10 mg/kg P.O. b.i.d.; YM-254890 2.5 mg/kg i.p. q.d.; over 20 days; single agents vs vehicle, combination vs vehicle and single agents
# Description: To evaluate the effect of YM-254890 and binimetinib (MEK162) in vivo, Mel202 uveal melanoma xenografts were established in SCID mice, and the mice were treated with vehicle only, 10 mg/kg MEK162 (P.O., b.i.d.), YM-254890 (2.5 mg/kg i.p., q.d.) or a combination of MEK162 and YM-254890. Tumor volumes were measured over 20 days.
# [4] = tested on: PKC and MAPK signaling (pRASGRP3, p-CRAF, p-MEK1/2, p-ERK1/2), cyclin D1 protein; assay: Western blot of downstream UVM signaling in UVM cells and A375 cells; type: cell-based, human; details: for inhibition of PKC and MAPK signaling and cyclin D1 protein / inhibition of MAPK targets (p-CRAF, p-MEK1/2, p-ERK1/2) / change in pRASGRP3: 500 nM YM; for inhibition of MAPK targets (p-CRAF, p-MEK1/2, p-ERK1/2): 2 hours
# Description: Immunoblotting. Lysates were harvested using SDS lysis buffer (50 mM Tris-HCL, pH 6.8, 1 mM EDTA, 150 mM NaCl, 1% SDS, […]) supplemented with fresh proteinase and phosphatase inhibitors (PhosSTOP, Roche, Basel, Switzerland; Complete EDTA-Free, Roche, Basel, Switzerland) and 1% PMSF (Sigma-Aldrich, St. Louis, Mo.). Lysates were incubated on ice for 30 minutes, sonicated for 15 minutes, and then centrifuged at max speed for 10 minutes at 4° C. Protein levels were quantified using BCA protein assay (Thermo Scientific, Waltham, Mass.). NuPAGE LDS Sample Buffer (4×) was added to a final concentration of 1×. Samples were run on NuPAGE Novex 4-12% Bis-Tris protein gels (Life Technologies, Carlsbad, Calif.), transferred electrophoretically to 0.45 μm PVDF membranes (Immobilon, EMD Millipore, Burlington, Mass.), and then blocked with StartingBlock blocking buffer (Thermo Scientific, Waltham, Mass.) for 1 hour at room temperature. Primary antibodies were incubated at 4° C. overnight in StartingBlock buffer at 1:1,000 dilution, unless noted otherwise. Primary Antibodies used in the experiments described herein are provided below:
# Given the unexpected sensitivity of GNAQ^Q209L mutation to YM in the melan-a system, the effect of YM on three human UVM cell lines that harbored the GNAQ^Q209L/P mutation was evaluated, using the BRAF^V600E mutant A375 cutaneous melanoma cell line as a negative control.
substance,measurement,setting,value
YM-254890,potency of inhibition of IP1 accumulation,[1],subnanomolar potency
same,inhibition of IP1 accumulation,[2],inhibited
same,tumor volume,[3],moderate reduction
same,inhibition of PKC and MAPK signaling and cyclin D1 protein,[4]; A375 cells (negative control),not in A375 cells
same,p-ERK1/2 level,"[4]; Mel202 cells, 24 hours",rebound
same,inhibition of pRASGRP3,"[4]; Mel202 cells, earlier time points, in contrast to Mel270 and OMM1.3",greater inhibition
same,inhibition of MAPK targets,"[4]; Mel202 cells, in contrast to Mel270 and OMM1.3",decreased inhibition
same,"inhibition of MAPK targets (p-CRAF, p-MEK1/2, p-ERK1/2)",[4]; Mel270 cells,significant inhibition
same,change in pRASGRP3,"[4]; Mel270 cells, 24 hours",small decreases
same,"inhibition of MAPK targets (p-CRAF, p-MEK1/2, p-ERK1/2)",[4]; OMM1.3 cells,significant inhibition
same,change in pRASGRP3,"[4]; OMM1.3 cells, 24 hours",small decreases
same,inhibition of PKC and MAPK signaling and cyclin D1 protein,[4]; UVM cells,inhibited
